Laboratory results published in article PMC9780888, “4-Isobutylmethcathinone—A Novel Synthetic Cathinone with High In Vitro Cytotoxicity and Strong Receptor Binding Preference of Enantiomers” (Pharmaceuticals, 2022).
Structures can show the parent of a compound that is named as a salt.

Tested on: CaCo-2
Assay: WST-1 viability assay, CaCo-2 cells
Format: cell-based, human
Details: CaCo-2, 72 h incubation, WST-1, four replicates
Protocol: Based on the novelty of the IMBcat compound, we aimed to evaluate its in vitro cytotoxicity in selected model cell lines as well as to determine the toxicity of the IBMcat enantiomers, since both the chemical structure and chirality of compounds could play a role in their bioactivity (Table 2). The cytotoxic profile of the IBMcat was determined by a WST-1 viability assay after 72-h treatment. For this purpose, cell lines derived from distinct tissues, often affected by NPSs, were chosen, i.e., cells of kidney, hepatic, neural, urinary, and intestinal origin as well as keratinocytes and primary fibroblasts (HEK 293T, Hep G2, HMC-3, SH-SY5Y, 5637, CaCo-2, HaCaT, MRC-5, and BJ, respectively). The cytotoxicity of IBMcat and its enantiomers was concentration- and cell-line dependent, the IC50 values, which were in the micromolar range, are given in Table 2. […] This was followed by embryonic kidney cells HEK 293T (immortalized), in which the toxicity ranged between a concentration of 123 and 192 µM.
In this study, the following cell lines were used: HEK 293T, Hep G2, HMC-3, SH-SY5Y, 5637, CaCo-2, HaCaT, MRC-5, BJ, and L929. […] The selected cell lines were chosen so that not only primary noncancerous cells are evaluated but also cells derived from tissues, which are the most often affected by novel synthetic drugs, i.e., kidney, liver, urinary bladder, and nervous tissue. […]
The cytotoxicity of IBMCat was evaluated in vitro by using a WST-1 viability assay (Sigma-Aldrich, Saint Louis, MO, USA) based on the transformation of a tetrazolium salt into colored formazan in metabolically active cells. […] After 72 h of additional incubation of the cells, their viability was determined by WST-1. […] The cells were incubated for 2 h, after which absorbance of the raised formazan was measured spectrophotometrically at 450 nm (reference wavelength of 630 nm) using a UV-Vis spectrometer (Bio-Rad Laboratories, Hercules, CA, USA). […] The half-maximal inhibitory concentrations (IC50) were calculated from the measured dose–response curves by AAT Bioquest.

| SMILES | IC50 (Homo sapiens) [µM] | IC50 [µM] |
| --- | --- | --- |
| CNC(C)C(=O)c1ccc(CC(C)C)cc1.Cl (stereo not drawn) [IBMcat, 4-isobutylmethcathinone hydrochloride] | 389 ± 42 |  |
| CN[C@H](C)C(=O)c1ccc(CC(C)C)cc1 [R-IBMCat] |  | 331 ± 19 |
| CN[C@@H](C)C(=O)c1ccc(CC(C)C)cc1 [S-IBMCat, (S)-4-isobutylmethcathinone hydrochloride] | 390 ± 17 |  |
